Assay results published in US10688099B2, “Methods for modulating the amount of RNA transcripts” (PTC Therapeutics, Inc., priority 2013, dated 2020).

Tested on: RNA isoforms in PNN 1-46 SMA type I patient-derived fibroblasts
Assay: RNA Abundance Modulation (RNA isoform abundance, iFPM, HiSeq RNA sequencing)
Format: cell-based, human
Details: 3 μM
Experimental: Cells from a cell line of interest are cultured in conditions sufficient to yield the number of cells capable of generating enough RNA for subsequent sequencing steps. Cells from the tested cell line are contacted with a compound described herein.
To culture said cells, they are seeded, at appropriate concentrations in a volume of media in a cell culture container and incubated for 4, 5, 6, 7, 8, 9, 10, or more hours. A concentrated solution of compound in a vehicle (e.g., DMSO) is then added in sufficient volume to result in the intended final concentration of the compound, for example 100 nM, 500 nM, 1 μM, 5 μM, 10 μM, 15 μM, 20 μM, or more. The cells may also be treated with vehicle alone, as a control. A number of replicates of each concentration or control may be made (e.g., 2 replicates). The cells are then incubated at a constant temperature appropriate for cell culture of the particular cell line (e.g., 37° C.) for 6, 12, 18, 24, 48, or more hours. After incubation, the growth medium is removed and the cells are washed with the appropriate buffer (e.g., PBS). Cells are then removed from adherence to the cell culture container by treatment with a solution containing trypsin, and the trypsin subsequently quenched with the appropriate volume of buffer (e.g., DMEM-FBS). The cells are then pelleted with gentle centrifugation (e.g., ≤90×g centrifugal force) and resuspended in a buffer to lyse the cells for extraction of RNA. The cell lysates may then be frozen (e.g., at −80° C.) or, alternately, may immediately be used in a procedure to purify the RNA (e.g. by use of the RNEASY PLUS® minikit). The RNA from cell lysates is eluted in the appropriate volume of buffer (e.g., RNEASE-FREE H2O®). The resulting purified RNA may then be sequenced (e.g., using RNASeq) or analyzed using a human exon array (e.g., by GENECHIP® human exon array) to determine changes in the RNA levels in those cells treated with compound compared to those cells treated only with DMSO. The purified RNA may also be quantified by other methods known in the art.
Using the RNA data obtained from sequencing, exon array, or other methods, a statistical analysis can reveal changes in the RNA levels of compound-treated compared with control. For example, t-test p-values may be calculated for the data obtained through sequencing and exon array methods in order to compare compound-treated cells to those treated with the DMSO control. […] Analysis of the sequencing and exon array data may then also yield predictions about the cause of the aberrant amount of an RNA transcript in the cells (e.g., perturbation of RNA splicing, RNA transcription, or RNA stability). These predictions may be further confirmed by methods known in the art. For example, RT-PCR and RT-qPCR may be used to confirm the change in amount of RNA transcripts for one or more particular transcripts of interest.
Following the methods described above in Example 1, PNN 1-46 SMA type I patient-derived fibroblasts were treated with 300 nM or 3 μM Compounds 774 and 808 in 0.5% DMSO.
700,000 cells were seeded in 10 mL of medium (DMEM plus 10% FBS) in a T-75 flask. Cells were allowed to attach for at least 4 hrs, after which 50 μL of a 200× compound solution (100% DMSO) was added to each well, and the plate was incubated at 37° C. for 24 hrs.
At the end of the incubation period, the supernatant was removed and the cells where washed with PBS. TrypLE (Invitrogen) express solution was added (e.g. 1.5 mL per one T75 flask). The flasks were incubated for 3 to 5 min at 37° C. The trypsin was then quenched, e.g., by adding 10 mL DMEM-FBS.
Next, the cells were pelleted using gentle centrifugation without exceeding 90×g centrifugal force. The supernatant was removed and the cell pellet was re-suspended in 600 μL RLT buffer (the RLT buffer was supplemented with beta-mercaptoethanol according to the RNeasy protocol manual) by pipetting up and down until the pellet was completely dissolved […]

For `CCc1nc(C)cn2nc(-c3cc(=O)n4cc(C5CCN(C)CC5)cc(C)c4n3)cc12` [Compound 774], the “L2FC (x + 1)” value (UBE2V1 NM_022442) was −1.807, the “L2abs (Cpd-DMSO)” value (UBE2V1 NM_022442) was 1.32 and the “abs (Cpd-DMSO)” value (UBE2V1 NM_022442) was 2 iFPM. The “amp FC (x + 1)” value (UBE2V1 NM_022442) was 3.50, the “ave Cpd” value (UBE2V1 NM_022442) was 0 iFPM and the “FC (x + 1)” value (UBE2V1 NM_199144) was 9.0627. For the same compound, the “L2FC (x + 1)” value (UBE2V1 NM_199144) was 3.180, the “L2abs (Cpd-DMSO)” value (UBE2V1 NM_199144) was 3.01 and the “abs (Cpd-DMSO)” value (UBE2V1 NM_199144) was 8 iFPM. The “amp FC (x + 1)” value (UBE2V1 NM_199144) was 9.06, the “ave Cpd” value (UBE2V1 NM_199144) was 8 iFPM and the “FC (x + 1)” value (UBE2V1 NM_001032288) was 1.0807. The “L2FC (x + 1)” value (UBE2V1 NM_001032288) was 0.112, the “L2abs (Cpd-DMSO)” value (UBE2V1 NM_001032288) was 8.47 and the “abs (Cpd-DMSO)” value (UBE2V1 NM_001032288) was 355 iFPM. The “amp FC (x + 1)” value (UBE2V1 NM_001032288) was 1.08, the “ave Cpd” value (UBE2V1 NM_001032288) was 4751 iFPM and the “FC (x + 1)” value (UBE2V1 NM_001257393) was 0.0796. For the same compound, the “L2FC (x + 1)” value (UBE2V1 NM_001257393) was −3.651, the “L2abs (Cpd-DMSO)” value (UBE2V1 NM_001257393) was 3.53 and the “abs (Cpd-DMSO)” value (UBE2V1 NM_001257393) was 12 iFPM. The “amp FC (x + 1)” value (UBE2V1 NM_001257393) was 12.56, the “ave Cpd” value (UBE2V1 NM_001257393) was 0 iFPM and the “FC (x + 1)” value (UBE2V1 NM_001257394) was 0.1697. For the same compound, the “L2FC (x + 1)” value (UBE2V1 NM_001257394) was −2.559, the “L2abs (Cpd-DMSO)” value (UBE2V1 NM_001257394) was 4.01 and the “abs (Cpd-DMSO)” value (UBE2V1 NM_001257394) was 16 iFPM. The “amp FC (x + 1)” value (UBE2V1 NM_001257394) was 5.89, the “ave Cpd” value (UBE2V1 NM_001257394) was 2 iFPM and the “FC (x + 1)” value (UBE2V1 NM_001257397) was 0.5713. The “L2FC (x + 1)” value (UBE2V1 NM_001257397) was −0.808, the “L2abs (Cpd-DMSO)” value (UBE2V1 NM_001257397) was 3.18 and the “abs (Cpd-DMSO)” value (UBE2V1 NM_001257397) was 9 iFPM. For the same compound, the “amp FC (x + 1)” value (UBE2V1 NM_001257397) was 1.75, the “ave Cpd” value (UBE2V1 NM_001257397) was 11 iFPM and the “FC (x + 1)” value (UBE2V1 NM_001257399) was 1.1595. For the same compound, the “L2FC (x + 1)” value (UBE2V1 NM_001257399) was 0.214, the “L2abs (Cpd-DMSO)” value (UBE2V1 NM_001257399) was 4.66 and the “abs (Cpd-DMSO)” value (UBE2V1 NM_001257399) was 25 iFPM. For the same compound, the “amp FC (x + 1)” value (UBE2V1 NM_001257399) was 1.16, the “ave Cpd” value (UBE2V1 NM_001257399) was 182 iFPM and the “FC (x + 1)” value (UBE2V1 NR_047554) was 0.0730. The “L2FC (x + 1)” value (UBE2V1 NR_047554) was −3.777, the “L2abs (Cpd-DMSO)” value (UBE2V1 NR_047554) was 8.39 and the “abs (Cpd-DMSO)” value (UBE2V1 NR_047554) was 337 iFPM. The “amp FC (x + 1)” value (UBE2V1 NR_047554) was 13.71, the “ave Cpd” value (UBE2V1 NR_047554) was 25 iFPM and the “FC (x + 1)” value (UBE2V1 NR_047555) was 0.9261. The “L2FC (x + 1)” value (UBE2V1 NR_047555) was −0.111, the “L2abs (Cpd-DMSO)” value (UBE2V1 NR_047555) was −1.09 and the “abs (Cpd-DMSO)” value (UBE2V1 NR_047555) was 0 iFPM. For the same compound, the “amp FC (x + 1)” value (UBE2V1 NR_047555) was 1.08, the “ave Cpd” value (UBE2V1 NR_047555) was 5 iFPM and the “FC (x + 1)” value (UBE2V1 NR_047556) was 0.5268. The “L2FC (x + 1)” value (UBE2V1 NR_047556) was −0.925, the “L2abs (Cpd-DMSO)” value (UBE2V1 NR_047556) was 3.88 and the “abs (Cpd-DMSO)” value (UBE2V1 NR_047556) was 15 iFPM. The “amp FC (x + 1)” value (UBE2V1 NR_047556) was 1.90, the “ave Cpd” value (UBE2V1 NR_047556) was 15 iFPM and the “FC (x + 1)” value (UCHL5 AK225794) was 0.7328. For the same compound, the “L2FC (x + 1)” value (UCHL5 AK225794) was −0.448, the “L2abs (Cpd-DMSO)” value (UCHL5 AK225794) was 3.79 and the “abs (Cpd-DMSO)” value (UCHL5 AK225794) was 14 iFPM. The “amp FC (x + 1)” value (UCHL5 AK225794) was 1.36, the “ave Cpd” value (UCHL5 AK225794) was 37 iFPM and the “FC (x + 1)” value (UCHL5 AK316064) was 1.3941. For the same compound, the “L2FC (x + 1)” value (UCHL5 AK316064) was 0.479, the “L2abs (Cpd-DMSO)” value (UCHL5 AK316064) was 4.93 and the “abs (Cpd-DMSO)” value (UCHL5 AK316064) was 30 iFPM. The “ave Cpd” value (UCHL5 AK316064) was 106 iFPM, the “FC (x + 1)” value (UCHL5 BC015381) was 1.2220 and the “L2FC (x + 1)” value (UCHL5 BC015381) was 0.289. The “L2abs (Cpd-DMSO)” value (UCHL5 BC015381) was 1.34, the “abs (Cpd-DMSO)” value (UCHL5 BC015381) was 3 iFPM and the “ave Cpd” value (UCHL5 BC015381) was 13 iFPM.
